We go through three compounds from ChEMBL document CHEMBL1125990, “Synthesis of novel 1-nitrogen replaced carbocyclic thymidine analogs as potential anti aids agents” (Bioorg Med Chem Lett, 1991).

Active and inactive are the calls of the source. No cut-off for these calls is given here.

The test system of the experiment is Human immunodeficiency virus 1. The experiment can be described thus: Tested for activity against HIV in cell culture at concentration of 100 ug/mL; NA denotes no activity. In kind it is functional, organism-based.
For `Cc1cn(N2CC(CO)C(N=[N+]=[N-])C2)c(=O)[nH]c1=O` (stereo not drawn), the result was inactive. Consider `Cc1cn(N2CC(O)C(CO)C2)c(=O)[nH]c1=O` (stereo not drawn), for which the outcome was inactive. `Cc1cn(N2CC(F)C(CO)C2)c(=O)[nH]c1=O` (stereo not drawn): the result was inactive.
